Assay results from PubChem BioAssay AID1963868 (Molecular Pharmacology Branch, DTP, NCI, 2024).

Test system: KRAS PDC tumor spheroids (HUVEC+MSC), viability
Assay: Anticancer human tumor 254851-301-R-J1-PDC patient-derived colon carcinoma cell line growth inhibition [KRAS2]
Conditions: for viability, T/C: stronger effect = lower value
Excerpt: Multicellular complex tumor spheroid response to RAS pathway inhibitors in combination with a targeted agents in patient-derived cell lines with oncogenic KRAS variants from multiple cancer types
A high-throughput screen of multi-cell type tumor spheroids was designed to identify active combinations of targeted small molecules and KRAS pathway inhibitors. Complex spheroids include a stromal component modeled by human endothelial cells (HUVEC) and fibroblasts modeled by human mesenchymal stem cells (MSCs). The concentration ranges selected for each drug and investigational agent were based upon clinically achievable concentrations if the clinical Cmax of the agent was known.
Compounds. The drugs and investigational agents: BI-3406 (NSC825286), BAY-293 (NSC824723), batoprotafib (TNO155; NSC825523), sotorasib (AMG 510; NSC818433), MRTX1257 (NSC819558), elimusertib (BAY 1895344; NSC800525), molibresib (GSK525762; NSC774829), temuterkib (LY3214996; NSC803410), venetoclax (NSC766270), alisertib (NSC759677), olaparib (NSC753686), talazoparib (NSC767125), erdafitinib (NSC781556), ipatasertib (NSC767898), cabozantinib (NSC761068), nintedanib (NSC756659), abemaciclib (NSC768073), docetaxel (NSC628503), trametinib (NSC758246), and sapanisertib (NSC764658) were obtained from the National Cancer Institute (NCI) Developmental Therapeutics Program Chemical Repository. The FDA-approved anticancer drug set is available from the Developmental Therapeutics Program. […] The stock solutions were prepared in dimethyl sulfoxide (DMSO, Sigma-Aldrich, St. Louis, MO, cat. D2650) at 800-fold the tested concentration and stored at -70 degrees C prior to their use. All drugs and investigational agents were tested over a range starting from a high concentration at or near the clinical Cmax and decreasing in half-log increments. If the clinical Cmax for an agent had not been determined, the highest concentration tested was 10 microM.
Cell Culture. All cells were maintained in an incubator at 37 degrees C and 5% CO2 with 95% humidity. The PDC lines were cultured according to standard operating procedures established by the NCI PDMR (https://pdmr.cancer.gov/sops/default.htm). Briefly, all PDCs were thawed and cultured in Matrigel-coated flasks prepared with a working solution of 1X Ham's F-12 nutrient mix, without supplementation (Invitrogen, Waltham, MA, cat. 11765054), 100 U/mL penicillin-streptomycin (Invitrogen, cat. 15140122), and 2.5% Matrigel (Corning Inc., Corning, NY, cat. 354248) for the first three passages. All PDCs were cultured in complete DMEM/F-12 media containing advanced DMEM/F-12 (Invitrogen, cat. 12634028), 4.9% defined fetal bovine serum, heat inactivated (HyClone Laboratories Inc., Logan, UT, cat. SH30070.03HI), 389 ng/mL hydrocortisone (Sigma-Aldrich, cat. H4001), 9.7 ng/mL human EGF recombinant protein (Invitrogen, cat. PHG0313), 23.4 microg/mL adenine (Sigma-Aldrich, cat. A2786), 97.3 U/mL penicillin-streptomycin (Invitrogen, cat. 15140122), 1.9 mM L-glutamine (Invitrogen, cat. 25030081), and 9.7 microM Y-27632 dihydrochloride (Tocris Bioscience, Bristol, United Kingdom, cat. 1254). The PDCs were cultured in complete DMEM/F12 media without 9.7 microM Y-27632 dihydrochloride for at least two passages prior to the screen. The established cell line HOP-62 was cultured in RPMI 1640 medium, HEPES (Invitrogen, cat. 22400105) with 10% defined fetal bovine serum (HyClone Laboratories Inc., cat. SH30070.03) and 2 mM L-glutamine (Invitrogen, cat. 25030081). The pooled donor HUVEC were cultured in endothelial cell growth medium 2 (PromoCell, Heidelberg, Germany, cat. C-22011) and the hMSC were cultured in mesenchymal stem cell growth medium 2 (PromoCell, cat. C-28009). For all experiments, HUVEC and hMSC were used at passages </=5, while the malignant cell lines were used at passages </=15. […]

[1] = curve of first compound, second compound 0.1 µM
[2] = curve of first compound, second compound 0.316 µM
[3] = curve of first compound, second compound 1 µM
[4] = curve of first compound, second compound 3.16 µM
[5] = curve of first compound, second compound 10 µM
[6] = second compound 0.1 µM, first compound 0.01 µM
[7] = second compound 0.1 µM, first compound 0.0316 µM
[8] = second compound 0.1 µM, first compound 0.1 µM
[9] = second compound 0.316 µM, first compound 0.01 µM
[10] = second compound 0.316 µM, first compound 0.0316 µM
[11] = second compound 0.316 µM, first compound 0.1 µM
[12] = second compound 1 µM, first compound 0.01 µM
[13] = second compound 1 µM, first compound 0.0316 µM
[14] = second compound 1 µM, first compound 0.1 µM
[15] = second compound 3.16 µM, first compound 0.01 µM
[16] = second compound 3.16 µM, first compound 0.0316 µM
[17] = second compound 3.16 µM, first compound 0.1 µM
[18] = second compound 10 µM, first compound 0.01 µM
[19] = second compound 10 µM, first compound 0.0316 µM
[20] = second compound 10 µM, first compound 0.1 µM
[21] = second compound 0.1 µM, first compound 0.316 µM
[22] = second compound 0.1 µM, first compound 1 µM
[23] = second compound 0.1 µM, first compound 3.16 µM
[24] = second compound 0.316 µM, first compound 0.316 µM
[25] = second compound 0.316 µM, first compound 1 µM
[26] = second compound 0.316 µM, first compound 3.16 µM
[27] = second compound 1 µM, first compound 0.316 µM
[28] = second compound 1 µM, first compound 1 µM
[29] = second compound 1 µM, first compound 3.16 µM
[30] = second compound 3.16 µM, first compound 0.316 µM
[31] = second compound 3.16 µM, first compound 1 µM
[32] = second compound 3.16 µM, first compound 3.16 µM
[33] = second compound 10 µM, first compound 0.316 µM
[34] = second compound 10 µM, first compound 1 µM
[35] = second compound 10 µM, first compound 3.16 µM
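Note: spheroids exposed to compounds for seven days before readout.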
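Throughout, for viability, T/C: 100% = DMSO vehicle control luminescence of the spheroids.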

Cn1ncnc1[C@H]1c2n[nH]c(=O)c3cc(F)cc(c23)N[C@@H]1c1ccc(F)cc1 + CNCc1ccccc1-c1csc(C(C)Nc2nc(C)nc3cc(OC)c(OC)cc23)c1 was tested, and the IC50 [1] was > 100 nM, the IC50 [2] was > 100 nM and the IC50 [3] was > 100 nM. For the same molecule, the IC50 [4] was > 100 nM, the IC50 [5] was < 0.316 nM and the viability, T/C (second compound 0.1 µM, first compound 0.000316 µM) was 94.9%. The viability, T/C (second compound 0.1 µM, first compound 0.001 µM) was 90.7%, the viability, T/C (second compound 0.1 µM, first compound 0.00316 µM) was 92.4% and the viability, T/C [6] was 96.9%. For the same molecule, the viability, T/C [7] was 95.6%, the viability, T/C [8] was 93.6% and the viability, T/C (second compound 0.316 µM, first compound 0.000316 µM) was 90.6%. The viability, T/C (second compound 0.316 µM, first compound 0.001 µM) was 95.6%, the viability, T/C (second compound 0.316 µM, first compound 0.00316 µM) was 98.8% and the viability, T/C [9] was 85.4%. It also gave a viability, T/C [10] of 94.5%, a viability, T/C [11] of 92.5% and a viability, T/C (second compound 1 µM, first compound 0.000316 µM) of 101%. It also gave a viability, T/C (second compound 1 µM, first compound 0.001 µM) of 97.8%, a viability, T/C (second compound 1 µM, first compound 0.00316 µM) of 93.9% and a viability, T/C [12] of 84%. For the same molecule, the viability, T/C [13] was 86.9%, the viability, T/C [14] was 95.2% and the viability, T/C (second compound 3.16 µM, first compound 0.000316 µM) was 66.3%. It also gave a viability, T/C (second compound 3.16 µM, first compound 0.001 µM) of 65%, a viability, T/C (second compound 3.16 µM, first compound 0.00316 µM) of 64.3% and a viability, T/C [15] of 63.7%. For the same molecule, the viability, T/C [16] was 67.9%, the viability, T/C [17] was 63.6% and the viability, T/C (second compound 10 µM, first compound 0.000316 µM) was 0.23%. The viability, T/C (second compound 10 µM, first compound 0.001 µM) was 0.23%, the viability, T/C (second compound 10 µM, first compound 0.00316 µM) was 0.25% and the viability, T/C [18] was 0.21%. It also gave a viability, T/C [19] of 0.22% and a viability, T/C [20] of 0.23%.
For O=C(c1cc(Cc2n[nH]c(=O)c3ccccc23)ccc1F)N1CCN(C(=O)C2CC2)CC1, the viability, T/C (compound 0.0316 µM) was 107% [middle of 5 runs], the viability, T/C (compound 0.1 µM) was 108% [middle of 5 runs] and the viability, T/C (compound 0.316 µM) was 99.5% [middle of 5 runs]. The viability, T/C (compound 1 µM) was 99.5% [middle of 5 runs], the viability, T/C (compound 3.16 µM) was 97.4% [middle of 5 runs] and the viability, T/C (compound 10 µM) was 99.1% [middle of 5 runs]. The IC50 (curve of compound) was > 10000 nM.
CCNC(=O)CC1N=C(c2ccc(Cl)cc2)c2cc(OC)ccc2-n2c(C)nnc21 (stereo not given) + CC1OCC2(CCN(c3cnc(Sc4ccnc(N)c4Cl)c(N)n3)CC2)C1N was tested, and the IC50 [1] was > 10000 nM, the IC50 [2] was > 10000 nM and the IC50 [3] was > 10000 nM. The IC50 [4] was 5860 nM, the IC50 [5] was > 10000 nM and the viability, T/C [7] was 111%. The viability, T/C [8] was 103%, the viability, T/C [21] was 99.9% and the viability, T/C [22] was 95.6%. It also gave a viability, T/C [23] of 94.9%, a viability, T/C (second compound 0.1 µM, first compound 10 µM) of 77.2% and a viability, T/C [10] of 94.2%. For the same molecule, the viability, T/C [11] was 108%, the viability, T/C [24] was 81.9% and the viability, T/C [25] was 89.5%. The viability, T/C [26] was 77.8%, the viability, T/C (second compound 0.316 µM, first compound 10 µM) was 68.5% and the viability, T/C [13] was 84.8%. It also gave a viability, T/C [14] of 83.3%, a viability, T/C [27] of 93.1% and a viability, T/C [28] of 73.9%. It also gave a viability, T/C [29] of 86.1%, a viability, T/C (second compound 1 µM, first compound 10 µM) of 65.6% and a viability, T/C [16] of 73%. It also gave a viability, T/C [17] of 69.3%, a viability, T/C [30] of 73% and a viability, T/C [31] of 67%. For the same molecule, the viability, T/C [32] was 58.9%, the viability, T/C (second compound 3.16 µM, first compound 10 µM) was 42% and the viability, T/C [19] was 70.5%. It also gave a viability, T/C [20] of 67.4%, a viability, T/C [33] of 57.8% and a viability, T/C [34] of 56.5%. The viability, T/C [35] was 56.5% and the viability, T/C (second compound 10 µM, first compound 10 µM) was 50.5%.
For COc1cc(OC)cc(N(CCNC(C)C)c2ccc3ncc(-c4cnn(C)c4)nc3c2)c1, the viability, T/C (compound 0.0316 µM) was 107% [middle of 5 runs], the viability, T/C (compound 0.1 µM) was 100% [middle of 5 runs] and the viability, T/C (compound 0.316 µM) was 96.7% [middle of 5 runs].
Work on CC(=O)OC12COC1CC(O)C1(C)C(=O)C(O)C3=C(C)C(OC(=O)C(O)C(NC(=O)OC(C)(C)C)c4ccccc4)CC(O)(C(OC(=O)c4ccccc4)C21)C3(C)C (stereo not given) + CC1OCC2(CCN(c3cnc(Sc4ccnc(N)c4Cl)c(N)n3)CC2)C1N yielded an IC50 [1] of 154 nM, an IC50 [2] of 175 nM and an IC50 [3] of 168 nM. The IC50 [4] was 80.1 nM, the IC50 [5] was 58.4 nM and the viability, T/C [6] was 99.2%. For the same molecule, the viability, T/C [7] was 89.1%, the viability, T/C [8] was 59.8% and the viability, T/C [21] was 33.6%. It also gave a viability, T/C [22] of 24.1%, a viability, T/C [23] of 24% and a viability, T/C [9] of 93.3%. It also gave a viability, T/C [10] of 85.8%, a viability, T/C [11] of 61.6% and a viability, T/C [24] of 38.1%. The viability, T/C [25] was 23.2%, the viability, T/C [26] was 22.6% and the viability, T/C [12] was 80.7%. The viability, T/C [13] was 89.6%, the viability, T/C [14] was 60.5% and the viability, T/C [27] was 36.1%. The viability, T/C [28] was 26.6%, the viability, T/C [29] was 22.9% and the viability, T/C [15] was 73.3%. The viability, T/C [16] was 72.3%, the viability, T/C [17] was 44.5% and the viability, T/C [30] was 22.3%. For the same molecule, the viability, T/C [31] was 17.1%, the viability, T/C [32] was 18.6% and the viability, T/C [18] was 64.2%. It also gave a viability, T/C [19] of 66.4%, a viability, T/C [20] of 36.7% and a viability, T/C [33] of 21.2%. The viability, T/C [34] was 16.1% and the viability, T/C [35] was 16.1%.
